Experimental data published in PubChem BioAssay AID248 (DTP/NCI, 2004).
Values joined by “and” are separate entries in the source; they are usually repeats but may differ in a detail not shown here. Equal entries are not always repeated. Inconclusive results and toxic doses are left out. No stated cut-off is given here; in the data, active means T/C of 150% or more; inactive means T/C below 125%.

Test system: L1210 leukemia ip in BDF1 mice, survival T/C
Test: NCI In Vivo Anticancer Drug Screen. Data for tumor model L1210 Leukemia (intraperitoneal) in B6D2F1 (BDF1) mice
Details: endpoint: mean survival time, higher = longer survival
Outline: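 In this screen, tumor-bearing mice given compound are compared to those given vehicle, and their survival values are reported as a treated-to-control quotient.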

[1] = dose: 100.0 mg/kg/injection, schedule: Q01DX009 (ip), vehicle: saline
[2] = dose: 200.0 mg/kg/injection, schedule: Q01DX009 (ip), vehicle: saline
[3] = dose: 100.0 mg/kg/injection, schedule: Q01DX009 (ip), vehicle: saline with Tween-80
[4] = dose: 200.0 mg/kg/injection, schedule: Q01DX009 (ip), vehicle: saline with Tween-80
[5] = dose: 400.0 mg/kg/injection, schedule: Q01DX009 (ip), vehicle: saline with Tween-80
[6] = dose: 6.25 mg/kg/injection, schedule: Q01DX009 (ip), vehicle: Klucel (hydroxypropylcellulose) (HPC)
[7] = dose: 12.5 mg/kg/injection, schedule: Q01DX009 (ip), vehicle: Klucel (hydroxypropylcellulose) (HPC)
[8] = dose: 25.0 mg/kg/injection, schedule: Q01DX009 (ip), vehicle: Klucel (hydroxypropylcellulose) (HPC)
[9] = dose: 100.0 mg/kg/injection, schedule: Q04DX002 (ip), vehicle: Klucel (hydroxypropylcellulose) (HPC)
[10] = dose: 200.0 mg/kg/injection, schedule: Q04DX002 (ip), vehicle: Klucel (hydroxypropylcellulose) (HPC)
[11] = dose: 400.0 mg/kg/injection, schedule: Q04DX002 (ip), vehicle: Klucel (hydroxypropylcellulose) (HPC)
[12] = dose: 100.0 mg/kg/injection, schedule: Q01DX009 (ip), vehicle: Klucel (hydroxypropylcellulose) (HPC)
[13] = dose: 100.0 mg/kg/injection, schedule: Q04DX003 (ip), vehicle: Klucel (hydroxypropylcellulose) (HPC)
[14] = dose: 200.0 mg/kg/injection, schedule: Q01DX009 (ip), vehicle: Klucel (hydroxypropylcellulose) (HPC)
[15] = dose: 200.0 mg/kg/injection, schedule: Q04DX003 (ip), vehicle: Klucel (hydroxypropylcellulose) (HPC)
[16] = dose: 400.0 mg/kg/injection, schedule: Q01DX009 (ip), vehicle: Klucel (hydroxypropylcellulose) (HPC)
[17] = dose: 400.0 mg/kg/injection, schedule: Q04DX003 (ip), vehicle: Klucel (hydroxypropylcellulose) (HPC)
[18] = dose: 75.0 mg/kg/injection, schedule: Q01DX001 (ip), vehicle: saline
[19] = dose: 150.0 mg/kg/injection, schedule: Q01DX001 (ip), vehicle: saline
[20] = dose: 100.0 mg/kg/injection, schedule: Q01DX001 (ip), vehicle: saline
[21] = dose: 200.0 mg/kg/injection, schedule: Q01DX001 (ip), vehicle: saline
[22] = dose: 400.0 mg/kg/injection, schedule: Q01DX001 (ip), vehicle: saline

Measured: T/C

O=C(Nc1ccc([N+](=O)[O-])cc1)N(c1ccccn1)c1ccccn1
inactive: dose: 100.0 mg/kg/injection, schedule: Q01DX001 (ip), vehicle: carboxymethylcellulose (CMC) 89 % of control | dose: 200.0 mg/kg/injection, schedule: Q01DX001 (ip), vehicle: carboxymethylcellulose (CMC) 91 % of control | dose: 400.0 mg/kg/injection, schedule: Q01DX001 (ip), vehicle: carboxymethylcellulose (CMC) 95 % of control

O=C(O)c1ccc(S(=O)(=O)O)cc1
inactive: [1] 100 % of control | [2] 97 % of control | dose: 400.0 mg/kg/injection, schedule: Q01DX009 (ip), vehicle: saline 101 % of control

COc1ccc(C=Nc2ccc3c(c2)OCO3)cc1Br
inactive: [3] 88 % of control | dose: 100.0 mg/kg/injection, schedule: Q04DX002 (ip), vehicle: saline with Tween-80 108 % of control | [4] 101 % of control | dose: 200.0 mg/kg/injection, schedule: Q04DX002 (ip), vehicle: saline with Tween-80 102 % of control | [5] 103 % of control | dose: 400.0 mg/kg/injection, schedule: Q04DX002 (ip), vehicle: saline with Tween-80 97 % of control

O=C(c1cccc([N+](=O)[O-])c1)c1[nH]c2sc3c(c2c1O)CCCC3
inactive: [6] 92 % of control | [7] 94 % of control and 91 % of control | [8] 89 % of control

N/C(=N\[N+](=O)[O-])Nc1ccccn1
inactive: [9] 95 % of control | [10] 98 % of control | [11] 109 % of control

CCCCCCCC(=O)CCC
inactive: [12] 108 % of control | [13] 98 % of control | [14] 104 % of control | [15] 89 % of control | [16] 102 % of control | [17] 89 % of control

[O-]/[N+](=C\c1ccccc1)c1ccc(Cl)cc1
inactive: [18] 96 % of control | [19] 95 % of control | dose: 300.0 mg/kg/injection, schedule: Q01DX001 (ip), vehicle: saline 91 % of control

Cc1ccc(S(=O)(=O)N(C)c2cc(Cl)c(C(=O)O)c(Cl)c2)cc1
inactive: [13] 96 % of control | [15] 105 % of control | [17] 97 % of control

C/C(CC(C)C)=N/Nc1nc(C)cc(=O)[nH]1
inactive: [12] 92 % of control | [13] 105 % of control | [14] 97 % of control | [15] 100 % of control | [17] 92 % of control

CCOC1(C(=O)O)CC(c2ccc(Cl)cc2)Nc2c(OC)ccc(OC)c21 (stereo not drawn)
inactive: dose: 100.0 mg/kg/injection, schedule: Q04DX003 (ip), vehicle: saline with Tween-80 98 % of control | dose: 200.0 mg/kg/injection, schedule: Q04DX003 (ip), vehicle: saline with Tween-80 93 % of control

N=C(N)c1ncn(C2CCCC2)c1N
inactive: [18] 106 % of control | [19] 105 % of control

CC[C@@H](O)C[C@H]1CCC[C@@]2(C[C@@H]3OC(=O)/C=C/[C@@](C)(O)[C@@H](O)[C@H](C)[C@@H](O)[C@H](OC4CCC(N(C)C)C(C)O4)[C@@H](O)[C@](C)(O)CCCCC/C=C/[C@@H]4CC(C)(C)O[C@@]4(O)C[C@H](O2)[C@H]3C)O1 (stereo partly drawn)
inactive: dose: 0.25 mg/kg/injection, schedule: Q04DX003 (ip), vehicle: saline 104 % of control | dose: 0.5 mg/kg/injection, schedule: Q04DX003 (ip), vehicle: saline 111 % of control | dose: 1.0 mg/kg/injection, schedule: Q04DX003 (ip), vehicle: saline 94 % of control | dose: 150.0 micrograms/kg/injection, schedule: Q01DX Z (sc), vehicle: steriod suspending solution 108 % of control | dose: 230.0 micrograms/kg/injection, schedule: Q01DX Z (sc), vehicle: steriod suspending solution 102 % of control | dose: 345.0 micrograms/kg/injection, schedule: Q01DX Z (sc), vehicle: steriod suspending solution 91 % of control

O=c1s[se]c2ccccc12
inactive: dose: 1.56 mg/kg/injection, schedule: Q01DX009 (ip), vehicle: Klucel (hydroxypropylcellulose) (HPC) 100 % of control | dose: 3.12 mg/kg/injection, schedule: Q01DX009 (ip), vehicle: Klucel (hydroxypropylcellulose) (HPC) 100 % of control | [6] 107 % of control | [7] 111 % of control | [8] 102 % of control | dose: 50.0 mg/kg/injection, schedule: Q01DX009 (ip), vehicle: Klucel (hydroxypropylcellulose) (HPC) 91 % of control

CCNc1nc(C)c2nc(C(=O)NCc3ccccc3)c(=O)n(CC)c2n1
inactive: dose: 100.0 mg/kg/injection, schedule: Q01DX001 (ip), vehicle: Klucel (hydroxypropylcellulose) (HPC) 94 % of control | dose: 200.0 mg/kg/injection, schedule: Q01DX001 (ip), vehicle: Klucel (hydroxypropylcellulose) (HPC) 94 % of control

CC(O)Cn1cnc2c1c(=O)n(C)c(=O)n2C (stereo not drawn)
inactive: [1] 93 % of control | dose: 100.0 mg/kg/injection, schedule: Q04DX003 (ip), vehicle: saline 95 % of control | [2] 95 % of control | dose: 200.0 mg/kg/injection, schedule: Q04DX003 (ip), vehicle: saline 95 % of control | dose: 400.0 mg/kg/injection, schedule: Q04DX003 (ip), vehicle: saline 94 % of control

O=C1CCCCC1Nc1ccc(Br)cc1 (stereo not drawn)
inactive: [20] 98 % of control | [21] 98 % of control | [22] 98 % of control

COc1ccc(C(=O)C(C)C)cc1
inactive: dose: 37.5 mg/kg/injection, schedule: Q01DX009 (ip), vehicle: saline sonified 95 % of control | dose: 75.0 mg/kg/injection, schedule: Q01DX009 (ip), vehicle: saline sonified 93 % of control | dose: 150.0 mg/kg/injection, schedule: Q01DX009 (ip), vehicle: saline sonified 103 % of control

[O-][n+]1c2ccccc2nn1-c1ccccc1
inactive: [20] 95 % of control | [21] 96 % of control | [22] 97 % of control

O=C(Nc1ccccc1)Oc1ccc(Cl)cc1Cc1ccccc1
inactive: [9] 87 % of control | [11] 101 % of control

NC(=O)NC(O)C(Cl)(Cl)Cl (stereo not drawn)
inactive: [12] 100 % of control | [14] 100 % of control | [16] 93 % of control

CCCCN(CCCl)C1c2ccccc2-c2ccccc21
inactive: dose: 25.0 mg/kg/injection, schedule: Q04DX002 (ip), vehicle: Klucel (hydroxypropylcellulose) (HPC) 106 % of control | dose: 50.0 mg/kg/injection, schedule: Q04DX002 (ip), vehicle: Klucel (hydroxypropylcellulose) (HPC) 95 % of control

Cc1nc(NN)ccc1[N+](=O)[O-]
inactive: [9] 96 % of control | [10] 90 % of control | [11] 96 % of control

O=C1OC(c2ccccc2)(c2ccccn2)c2ccccc21 (stereo not drawn)
inactive: [3] 90 % of control | [4] 92 % of control | [5] 88 % of control

CCC(=O)CC1CCCC(CC(=O)CC)N1C (stereo not drawn)
inactive: dose: 9.5 mg/kg/injection, schedule: Q01DX001 (ip), vehicle: saline 96 % of control | dose: 19.0 mg/kg/injection, schedule: Q01DX001 (ip), vehicle: saline 104 % of control | dose: 38.0 mg/kg/injection, schedule: Q01DX001 (ip), vehicle: saline 102 % of control
